Values of other authors as cited in patent US20210077540A1, “BIOACTIVE GREEN-LIPPED MUSSEL EXTRACTS AND USES THEREOF” (SANFORD LIMITED, priority 2018, published 2021).

Legend:
[1] = oral supplementation, meta-analysis of randomized, double-blind, placebo-controlled trials
[2] = supplementation, women with gestational hypertension incl. pre-eclampsia

N=C(N)NCCC[C@H](N)C(=O)O [L-arginine]
reduction of diastolic blood pressure, pooled estimate [1]: 2.7 mmHg | reduction of systolic blood pressure, pooled estimate [1]: 5.4 mmHg | effect on diastolic blood pressure (in words) [2]: reduces diastolic blood pressure | effect on length of pregnancy (in words) [2]: lengthens pregnancy
